Laboratory results published in patent US9732115B2, “3-(4′-substituted)-benzyl-ether derivatives of pregnenolone” (INSERM (Institut National de la Sante et de la Recherche …, priority 2012, dated 2017).

Test system: CHO cell line
Assay: In vitro test of metabolization in CHO cells (steroids in culture medium by GC/MS)
Experimental: In Vitro Test of Metabolization
In this example, CHO cell line was used. These cells derived from the ovary have all the enzymes needed to metabolize pregnenolone in downstream steroids.
The content in CHO culture medium of allopregnanolone (ALLO), epiallopregnanolone (EPIALLO), pregnenolone (PREG), DHEA, and testosterone (TESTO) was measured by GC/MS.
Pregnenolone derivatives having C3 substituted with benzyloxy were tested using in vitro test in CHO cells.
Results expressed as percentage changes from CHO cells treated with Pregnenolone or as pg/ml (0=concentrations below the detection limit).

[1] = CHO culture medium, Pregnenolone 1 μM, 48 hours, GC/MS

SMILES	metabolised in Pregnenolone (in words) (CHO cells, Table 2)	Allopregnanolone and Epiallopregnanolone in the culture medium (in words) (CHO cells, 1 μM, 48 hours)	ALLO (allopregnanolone) steroid levels [1] [pg/mL]	DHEA steroid levels [1] [pg/mL]	EPIALLO (epiallopregnanolone) steroid levels [1] [pg/mL]	PREG (pregnenolone) steroid levels [1] [pg/mL]	TESTO (testosterone) steroid levels [1] [pg/mL]
COc1ccc(CO[C@H]2CC[C@@]3(C)C(=CCC4C3CC[C@@]3(C)C4CC[C@]3(C)C(C)=O)C2)cc1 (stereo partly drawn) [Compound 68, 3β-(p-methoxy- benzyloxy)-17α- methyl- pregnenolone]	not metabolised						
CC(=O)[C@H]1CC[C@H]2[C@@H]3CC=C4C[C@@H](O)CC[C@]4(C)[C@H]3CC[C@]12C [Pregnenolone]		significant increase	3529.99	0.00	16963.84	11440.66	0.00
